{"source": "paper PMC2783875", "about": "(Biochemistry, 2009)", "target": "T1, EntE (Escherichia coli, UniProt P10378)", "T1 sequence (P10378 1-536)": "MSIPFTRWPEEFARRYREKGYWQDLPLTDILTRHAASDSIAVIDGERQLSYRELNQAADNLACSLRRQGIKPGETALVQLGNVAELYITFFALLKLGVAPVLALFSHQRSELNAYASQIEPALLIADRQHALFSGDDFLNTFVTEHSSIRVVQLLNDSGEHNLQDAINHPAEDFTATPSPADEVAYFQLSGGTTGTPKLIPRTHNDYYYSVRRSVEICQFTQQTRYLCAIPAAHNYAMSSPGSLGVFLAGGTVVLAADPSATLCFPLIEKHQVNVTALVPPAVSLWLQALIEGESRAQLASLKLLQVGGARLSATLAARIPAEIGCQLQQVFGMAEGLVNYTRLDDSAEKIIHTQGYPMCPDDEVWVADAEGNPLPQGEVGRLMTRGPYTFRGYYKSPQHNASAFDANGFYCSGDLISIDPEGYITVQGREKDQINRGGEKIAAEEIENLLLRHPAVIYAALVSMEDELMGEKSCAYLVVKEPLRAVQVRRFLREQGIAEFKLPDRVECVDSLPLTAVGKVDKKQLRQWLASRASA", "experiment": "enzyme inhibition kinetics versus ATP", "type": "biochemical", "data": [{"smiles": "Nc1ncnc2c1ncn2[C@@H]1O[C@H](COP(=O)(O)OP(=O)(O)OP(=O)(O)OP(=O)(O)OC[C@H]2O[C@@H](n3cnc4c(N)ncnc43)[C@H](O)[C@@H]2O)[C@@H](O)[C@H]1O", "note": "[Ap4A, P^1, P^3-diadenosine-5′-tetraphosphate]", "values": [{"measurement": "Ki", "result": "1200 ± 100", "unit": "nM"}]}]}
